Among the test systems are IGROV1 ovarian; 786-0 renal; ACHN renal; HCC-2998 colon; RPMI-8226 leukemia; SF-268 CNS; SR leukemia; SK-OV-3 ovarian.
Test in all cases: DTP human tumour cell line panel, 48 h

Molecules are shown by their SMILES. Where “and” joins values, the source holds several entries; their conditions need not be identical. Equal values may be shown once.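 Cells were grown in 96-well plates and exposed to each compound for 48 hours at five concentrations; endpoints were interpolated linearly between bracketing concentrations, or set to the highest concentration if not reached. Abbreviation: GI50, concentration required for 50% inhibition of growth. TGI: total growth inhibition.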 Where only a bound is given, the exact number is not on record here.

For the molecule `COC(=O)C1C(=O)CC2CCCCC21` (stereo not drawn), the TGI in the assay on IGROV1 ovarian, in the assay with 786-0 renal, in the assay on ACHN renal, in the assay with HCC-2998 colon, in the assay on RPMI-8226 leukemia and in the assay on SF-268 CNS was greater than 100 µM each time. The TGI in the assay with SR leukemia and in the assay on SK-OV-3 ovarian was greater than 100 µM in each case.

In the case of `CN(C)/C=N\c1ccnc(=O)[nH]1`, the TGI in the assay with IGROV1 ovarian, in the assay on 786-0 renal, in the assay with ACHN renal, in the assay on RPMI-8226 leukemia, in the assay with SF-268 CNS and in the assay with SK-OV-3 ovarian was greater than 100 µM throughout.

On to `Cc1ccc(Oc2ccccc2N)cc1`, for which the TGI – broadly, the concentration at which net growth stops – was greater than 100 µM in the assay with IGROV1 ovarian; 86.8 µM with 786-0 renal; 34.2 µM in the assay on HCC-2998 colon; greater than 100 µM in the assay with RPMI-8226 leukemia; greater than 100 µM in the assay on SF-268 CNS; greater than 100 µM in the assay on SR leukemia. The molecule further registered a TGI with SK-OV-3 ovarian greater than 100 µM.

On to `Cl/C(N=Nc1ccccc1)=N/Nc1ccccc1`, for which the TGI in the assay with IGROV1 ovarian, in the assay with 786-0 renal, in the assay on ACHN renal, in the assay with HCC-2998 colon, in the assay with SF-268 CNS and in the assay on SR leukemia was greater than 100 µM each time. The same molecule registered a TGI in the assay on SK-OV-3 ovarian greater than 100 µM.

On to `NNc1cnn(-c2ccccc2)c(=O)c1Cl`, for which the TGI in the assay with IGROV1 ovarian, with 786-0 renal, with ACHN renal, in the assay on RPMI-8226 leukemia, in the assay with SF-268 CNS and with SR leukemia was greater than 100 µM throughout. Moreover, the TGI in the assay with SK-OV-3 ovarian is greater than 100 µM.

For the molecule `Cc1c2c(cc3c1C(=O)C(=O)C1=C3OC[C@@H]1C)C(C)(C)CCC2`, the TGI in the assay with IGROV1 ovarian worked out at 49.8 µM; in the assay with 786-0 renal, 75.9 µM; in the assay on ACHN renal, 38.3 µM; in the assay with HCC-2998 colon, 42.4 µM; in the assay on SF-268 CNS, 35.4 µM; in the assay with SR leukemia it was 50.2 µM. Further, the TGI with SK-OV-3 ovarian was found to be 82.8 µM.

Turning to `COc1ccc(OC(C(=O)O)C(C)C)c2c1CCCC2=O` (stereo not drawn), the TGI in the assay with IGROV1 ovarian, in the assay on 786-0 renal, with ACHN renal, with HCC-2998 colon, in the assay on RPMI-8226 leukemia and in the assay on SF-268 CNS was greater than 100 µM in each case. The same molecule displayed a TGI with SK-OV-3 ovarian greater than 100 µM.

On to `CC(=O)NC(CCCCN)C(=O)NCc1ccccc1` (stereo not drawn), for which the TGI in the assay with IGROV1 ovarian, in the assay on 786-0 renal, in the assay on ACHN renal, in the assay with HCC-2998 colon, with RPMI-8226 leukemia and in the assay with SF-268 CNS was greater than 100 µM throughout. Besides, the TGI in the assay with SK-OV-3 ovarian was greater than 100 µM.

As to `C#CCNC(=O)NCCCCC(NC(=O)OCc1ccccc1)C(=O)OCc1ccccc1` (stereo not drawn), the TGI is greater than 100 µM in the assay with IGROV1 ovarian; greater than 100 µM in the assay on 786-0 renal; greater than 31.6 µM with ACHN renal; greater than 72.5 µM in the assay on HCC-2998 colon; 45.9 µM in the assay on RPMI-8226 leukemia; greater than 100 µM in the assay with SR leukemia. In addition, the TGI with SK-OV-3 ovarian was greater than 100 µM.

Turning to `[O-]c1ccccc1C=Nc1ccc2c(c1)CCC2.[O-]c1ccccc1C=Nc1ccc2c(c1)CCC2.[O]=[U+2]=[O]`, the GI50 (in general, the concentration that inhibits growth by half) in the assay with IGROV1 ovarian was 41 µM; in the assay on 786-0 renal, 40.3 µM; in the assay with ACHN renal, 70.3 µM; with HCC-2998 colon, 57.1 µM; in the assay with RPMI-8226 leukemia it was 16.5 µM; with SF-268 CNS it was greater than 100 µM. In addition, the GI50 in the assay on SK-OV-3 ovarian was greater than 100 µM. For the same molecule, the TGI with IGROV1 ovarian, with 786-0 renal, with ACHN renal, with HCC-2998 colon, in the assay with RPMI-8226 leukemia and in the assay on SF-268 CNS was greater than 100 µM throughout. This molecule displayed a TGI with SK-OV-3 ovarian greater than 100 µM.

Consider `CC(C)(O)/C=C/C(=O)[C@](C)(O)[C@H]1[C@H](O)C[C@@]2(C)[C@@H]3CC=C4[C@@H](C[C@H](O)C(=O)C4(C)C)[C@]3(C)C(=O)C[C@]12C`, for which the concentration for 50% growth inhibition (GI50) in the assay with IGROV1 ovarian is 0.211 µM; with 786-0 renal, 0.218 µM; in the assay with ACHN renal it was 0.197 µM and 1.28 µM; with HCC-2998 colon it was 0.371 µM and 0.647 µM; with RPMI-8226 leukemia, 0.0666 µM; in the assay on SR leukemia it was 0.39 µM. The GI50 with SK-OV-3 ovarian was 0.566 µM. Besides, the TGI with IGROV1 ovarian is 0.479 µM and 1.22 µM; with 786-0 renal, 0.939 µM and 0.362 µM; in the assay on ACHN renal it was 0.931 µM and 8.45 µM; with HCC-2998 colon it was 8.67 µM; with RPMI-8226 leukemia it was 0.915 µM and 0.824 µM; with SF-268 CNS it was 0.631 µM and 0.807 µM. The TGI was 5.05 µM with SR leukemia; 0.977 µM and 4.71 µM with SK-OV-3 ovarian.

With `O=C1OC(c2ccccc2)=N/C1=C\c1ccc(Oc2ccc(Cl)c(Cl)c2)cc1`, the TGI was greater than 100 µM in the assay on IGROV1 ovarian; greater than 100 µM in the assay on 786-0 renal; greater than 100 µM in the assay with ACHN renal; greater than 100 µM in the assay on HCC-2998 colon; 57.6 µM with SF-268 CNS; 57 µM in the assay on SR leukemia.

For the molecule `C[Si](C)(C)C(CCCCSc1ccccc1)(Sc1ccccc1)Sc1ccccc1`, the TGI with 786-0 renal, in the assay with ACHN renal, in the assay on HCC-2998 colon, in the assay on RPMI-8226 leukemia, with SF-268 CNS and in the assay with SR leukemia was greater than 100 µM throughout. The TGI in the assay with SK-OV-3 ovarian was greater than 100 µM.

For the molecule `Clc1cccc(N2CCN(CCCN3CCc4c([nH]c5ccccc45)C3c3cccnc3)CC2)c1` (stereo not drawn), the TGI in the assay with IGROV1 ovarian was greater than 100 µM; with 786-0 renal, 20.2 µM; with ACHN renal, 31.3 µM; with HCC-2998 colon, 11.9 µM; in the assay on SR leukemia, 7.34 µM and 24.6 µM; in the assay on SK-OV-3 ovarian, 32.2 µM. The GI50 is 7.08 µM in the assay with 786-0 renal, 3.06 µM in the assay on HCC-2998 colon and 4.58 µM in the assay on SR leukemia.

As to `COC(=O)CCC12CCC(=O)C1[C@@H](C(=O)OC)C[C@H]2C(=O)OC` (stereo partly drawn), the TGI in the assay on IGROV1 ovarian, in the assay with 786-0 renal, with ACHN renal, in the assay with HCC-2998 colon, with RPMI-8226 leukemia and with SF-268 CNS was greater than 100 µM in each case. In the assay on SK-OV-3 ovarian, this molecule registered a TGI greater than 100 µM.

Turning to `O=C(O)c1cc(=O)c2c([nH]c3ccccc32)s1`, the TGI with IGROV1 ovarian, in the assay with 786-0 renal, in the assay with ACHN renal, in the assay with HCC-2998 colon, with RPMI-8226 leukemia and in the assay on SF-268 CNS was greater than 100 µM in each case. This molecule had a TGI in the assay with SK-OV-3 ovarian greater than 100 µM.

As to `Cc1c(C(=O)/C=C/C=C/c2ccccc2)[n+](=O)c2ccccc2n1[O-]`, the TGI was 65.5 µM in the assay on IGROV1 ovarian; 52.7 µM in the assay on 786-0 renal; 60.8 µM with ACHN renal; 36.7 µM in the assay with HCC-2998 colon; greater than 100 µM in the assay on SF-268 CNS; greater than 100 µM with SK-OV-3 ovarian.

On to `CNc1ccc2ncccc2c1[N+](=O)[O-]`, for which the TGI with IGROV1 ovarian, in the assay with 786-0 renal, in the assay with ACHN renal, with HCC-2998 colon, in the assay with RPMI-8226 leukemia and in the assay with SF-268 CNS was greater than 100 µM in each case. For the same molecule, the TGI in the assay with SR leukemia was greater than 100 µM.

For the molecule `C#CCNC(=O)ON1C(=O)CCC1=O`, the TGI in the assay on IGROV1 ovarian, in the assay with 786-0 renal, in the assay on ACHN renal, in the assay with RPMI-8226 leukemia, with SF-268 CNS and in the assay with SK-OV-3 ovarian was greater than 100 µM in each case.

As for `CCc1cccc(C)c1NC(=O)CCc1nnc2s/c(=C\c3cccc4ccccc34)c(=O)n12`, the TGI with IGROV1 ovarian, in the assay with 786-0 renal, in the assay on ACHN renal, in the assay with HCC-2998 colon, with RPMI-8226 leukemia and with SF-268 CNS was greater than 100 µM each time. The molecule also showed a TGI with SK-OV-3 ovarian greater than 100 µM.

Turning to `CC1(c2cc3c(cc2Br)OCO3)SCCCS1`, the TGI in the assay on IGROV1 ovarian was greater than 100 µM; in the assay on 786-0 renal, greater than 100 µM; with ACHN renal, greater than 100 µM; in the assay on HCC-2998 colon it was 77.3 µM; with RPMI-8226 leukemia it was 91.6 µM; in the assay on SF-268 CNS it was greater than 100 µM. Moreover, the TGI in the assay on SK-OV-3 ovarian was greater than 100 µM.

`COC(=O)C1=C(CS(=O)c2ccc([N+](=O)[O-])cc2[N+](=O)[O-])C2C=CC1C2` (stereo not drawn): the TGI in the assay on IGROV1 ovarian was greater than 100 µM; with 786-0 renal it was 62.6 µM; in the assay with ACHN renal, 39.5 µM; with HCC-2998 colon it was 95.3 µM; in the assay with RPMI-8226 leukemia it was greater than 100 µM; in the assay on SF-268 CNS it was greater than 100 µM. In the assay on SK-OV-3 ovarian, this molecule registered a TGI greater than 100 µM.

As for `N#C/C(=C\c1cccc(O)c1O)C(N)=O`, the TGI in the assay on IGROV1 ovarian is greater than 100 µM; in the assay on 786-0 renal, greater than 100 µM; in the assay on ACHN renal, greater than 100 µM; with HCC-2998 colon, 46.9 µM; in the assay on RPMI-8226 leukemia, 65.6 µM; with SF-268 CNS, greater than 100 µM. Further, the TGI in the assay with SK-OV-3 ovarian was found to be 93.7 µM.

For `Cc1ccc(S(=O)(=O)N=NC=C2c3ccccc3N(O)c3ccccc32)cc1`, the TGI with IGROV1 ovarian turned out to be 27.1 µM; with 786-0 renal, 7.36 µM; in the assay on ACHN renal, 9.43 µM; with HCC-2998 colon, 21.6 µM; with RPMI-8226 leukemia it was 3.68 µM; in the assay with SF-268 CNS, 19.5 µM. In the assay with SK-OV-3 ovarian, this molecule displayed a TGI of 27.9 µM.

On to `O=c1nc(-c2ccccc2)cc(CC(O)c2ccc(Cl)c(Cl)c2)[nH]1` (stereo not drawn), for which the TGI in the assay on IGROV1 ovarian, with 786-0 renal, with ACHN renal, in the assay with HCC-2998 colon, in the assay on SF-268 CNS and in the assay with SK-OV-3 ovarian was greater than 100 µM each time.

Values taken from PubChem BioAssay (NCI).
